Broadly, the IC50 is the concentration needed to halve the response being measured. A lower IC50 goes with greater potency in that assay.

Structures are written as SMILES. Counter-ions that a name gives are not always drawn. Bounds are passed on as bounds.

For one data set, the target named is T1, 5HT1 A receptors (Rattus norvegicus, UniProt P19327).
T1 construct: The hippocampus is ground in a Polytrone; from tissue; host or cells: rat hippocampus membranes (male Charles River rats)
T1 sequence (P19327 1-422): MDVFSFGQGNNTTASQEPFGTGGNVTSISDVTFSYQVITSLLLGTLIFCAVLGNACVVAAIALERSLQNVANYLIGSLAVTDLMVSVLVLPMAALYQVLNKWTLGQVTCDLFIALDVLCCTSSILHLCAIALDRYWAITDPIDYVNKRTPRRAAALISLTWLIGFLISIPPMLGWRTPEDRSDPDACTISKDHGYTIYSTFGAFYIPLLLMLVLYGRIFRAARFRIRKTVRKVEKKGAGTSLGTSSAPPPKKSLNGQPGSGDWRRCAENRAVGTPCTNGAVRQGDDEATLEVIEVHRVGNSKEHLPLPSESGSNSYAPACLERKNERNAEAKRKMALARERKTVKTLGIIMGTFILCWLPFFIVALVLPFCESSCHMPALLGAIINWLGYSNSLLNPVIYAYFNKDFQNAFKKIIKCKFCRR
As to the kind of experiment: 5HT1 A binding (3H-8-OH-DPAT, hippocampus membranes). Further details: species or system Male Charles River rats. The following applies: 3H-8-OH-DPAT ligand 1 nM, 30 min at 25° C. Here is the method:
The 5HT1 A binding studies were carried out according to the technique of Peroutka (cf. Peroutka S. J., J. Neurochem. 47, p. 529-40, 1986). Male Charles River rats are stunned and decapitated, and the brain is removed and dissected. The different cerebral areas obtained are used or preserved at […]. The hippocampus is ground in a Polytrone® (20 seconds at 7) in 20 volumes of 50 mM tris HCl buffer pH 7.7 at 25° C.) and centrifuged at 45000 g for 10 min. The pellet is separated, taken up in the same volume of tris buffer and incubated for 10 min at 37° C. and then recentrifuged for 10 min at 45000 g. The pellet is finally taken up in 100 volumes of tris HCl buffer containing 10 μM of pargyline, 4 mM of CaCl2 and 0.1% of ascorbic acid. The mixture obtained is homogenized in a Dounce.
The binding is carried out starting with 0.8 ml of the above membrane suspension to which 0.1 ml of ^3 H-8-OH-DPAT ligand (at a concentration of 1 nM) and either 0.1 ml of tris buffer (control) or the compound of the above invention is added. After incubation for 30 min at 25° C., the mixture is filtered on GF/B (Whatman) and rinsed with 5 ml of cold tris HCl buffer. The residue and the filter are then introduced into a vial containing 3 ml of Instagel liquid scintillant (Packard) and the radioactivity is measured in a Packard counter (Tri-Carbs).
The IC50 are determined graphically for a concentration of ligand of 1 nM.
Table I gives the IC50 for the 5HT1 A receptors for certain derivatives of the invention by way of nonlimiting example.
For `COc1ccc2c(c1)C(=O)N(CCN1CCN(c3ccccc3OC)CC1)CO2` [Example 15, Hydrochloride of 6-methoxy-2,3-dihydro-3-[2-(4-(2-methoxyphenyl)piperazinyl)ethyl]-4H-1,3-benzoxazin-4-one], the IC50 worked out at 2.2 nM. On to `COc1ccccc1N1CCN(CCN2COc3ccccc3C2=O)CC1` [Example 5, Dihydrochloride of 2,3-dihydro-3-[2-(4-(2-methoxyphenyl)piperazinyl)ethyl]-4H-1,3-benzoxazin-4-one], for which the IC50 turned out to be 5 nM. The same measure, in the same setting: next, `COc1ccccc1N1CCN(CCN2COc3ccc(Cl)cc3C2=O)CC1` [Example 14, Hydrochloride of 6-chloro-2.3-dihydro-3-[2-(4-(2-methoxyphenyl)piperazinyl)ethyl]-4H-1,3-benzoxazin-4-one]: 5 nM; `O=C1c2ccccc2OCN1CCCCN1CCN(c2cccc(C(F)(F)F)c2)CC1` [Example 1, Monohydrochloric 3-dihydro-3-[4-(4-(3-trifluoromethylphenyl)piperazinyl)butyl]-4H-1,3-benzoxazin-4-one]: 7 nM.

Tested on in the next data set: not listed separately
Kind of data set: solubility. Type of data set: physicochemical. The following applies: in DMSO.
With `COc1ccc(N2CCN(CCCCN3COc4cc(OC)c(OC)cc4C3=O)CC2)cc1OC` [Example 18, Hydrochloride of 2.3-dihydro-6,7-dimethoxy-3-[4-(4-(3,4-dimethoxyphenyl)piperazinyl)butyl]-4H-1,3-benzoxazin-4-one], the “soluble in DMSO up to” value is “up to 2%”. Regarding `COc1ccc2c(c1)C(=O)N(CCN1CCN(c3ccccc3OC)CC1)CO2` [Example 15, Hydrochloride of 6-methoxy-2,3-dihydro-3-[2-(4-(2-methoxyphenyl)piperazinyl)ethyl]-4H-1,3-benzoxazin-4-one], the “soluble in DMSO up to” value is “up to 1.3%”. On the same count and under the same terms, next, `COc1ccccc1N1CCN(CCN2COc3ccc(C)cc3C2=O)CC1` [Example 13, Hydrochloride of 2.3-dihydro-6-methyl-3-[2-(4-(2-methoxyphenyl)piperazinyl)ethyl]-4H-1,3-benzoxazin-4-one]: “up to 3%”. The same measure, in the same setting: next, `O=C1c2ccccc2OCN1CCN1CCN(c2cccc(C(F)(F)F)c2)CC1` [Example 10]: “up to 7%”; `COc1ccccc1N1CCN(CCN2COc3ccc(Cl)cc3C2=O)CC1` [Example 14, Hydrochloride of 6-chloro-2.3-dihydro-3-[2-(4-(2-methoxyphenyl)piperazinyl)ethyl]-4H-1,3-benzoxazin-4-one]: “up to 1%”. Still for that read-out and setting: next, `COc1ccc2c(c1)C(=O)N(CCN1CCN(c3cccc(C(F)(F)F)c3)CC1)CO2` [Example 16, Hydrochloride of 2.6-dihydro-6-methoxy-3-[2-(4-(3-trifluoromethylphenyl)piperazinyl)ethyl]-4H-1,3-benzoxazin-4-one]: “up to 7%”; `CC1Oc2ccccc2C(=O)N1CCN1CCN(c2cccc(C(F)(F)F)c2)CC1` (racemic) [Example 19, Hydrate of the (dl) hydrochloride of 2.3-dihydro-2-methyl-3-[2-(4-(3-trifluoromethylphenyl)piperazinyl)ethyl]-4H-1,3-benzoxazin-4-one]: “up to 2%”. `O=C1c2ccccc2OCN1CCCCN1CCN(c2cccc(C(F)(F)F)c2)CC1` [Example 1, Monohydrochloric 3-dihydro-3-[4-(4-(3-trifluoromethylphenyl)piperazinyl)butyl]-4H-1,3-benzoxazin-4-one]: the “soluble in DMSO up to” value is recorded as “up to 6%”.

For the molecule `O=C1c2ccccc2OCN1CCN1CCN(c2cccc(Cl)c2)CC1` [Example 9, Hydrochloride of 2.3-dihydro-3-[2-(4-(3-chlorophenyl)piperazinyl)ethyl]-4H-1,3-benzoxazin-4-one], the “soluble in DMSO up to” value is listed as “up to 10%”.

Staying with this data set, now noted: in water.
As for `COc1ccccc1N1CCN(CCN2COc3ccccc3C2=O)CC1` [Example 5, Dihydrochloride of 2,3-dihydro-3-[2-(4-(2-methoxyphenyl)piperazinyl)ethyl]-4H-1,3-benzoxazin-4-one], the “soluble in water up to” value is given as “up to 6%”.

With `COc1ccccc1N1CCN(CCN2COc3ccccc3C2=O)CC1` [Example 5 monohydrochloride], the “soluble in water up to” value is listed as “up to 0.9%”.

The same data set, now with this note: water, in water; read-out: soluble in water up to.
For the molecule `COc1ccccc1N1CCN(CCCCN2COc3ccccc3C2=O)CC1` [Example 7, Monohydrate of the dihydrochloride of 2,3-dihydro-3-[4-(4-(2-methoxyphenyl)piperazinyl)butyl]-4H-1,3-benzoxazin-4-one], the solubility was no more than 30000 µg/mL. On the same count and under the same terms, next, `O=C1c2ccccc2OCN1CCN1CCN(c2ncccn2)CC1` [Example 12, Hydrochloride of 2,3-dihydro-3-[2-(4-(2-pyrimidinyl)piperazinyl)ethyl]-4H-1,3-benzoxazin-4-one]: no more than 12000 µg/mL.

For `Cc1ccccc1N1CCN(CCN2COc3ccccc3C2=O)CC1` [Example 8, Monohydrochloride of 2,3-dihydro-3-[2-(4-(2-methylphenyl)piperazinyl)ethyl]-4H-1,3-benzoxazin-4-one], the solubility is no more than 3500 µg/mL.

For the molecule `O=C1c2ccccc2OCN1CCN1CCN(c2ccccn2)CC1` [Example 11, Hydrochloride of 2,3-dihydro-3-[2-(4-(2-pyridinyl)piperazinyl)ethyl]-4H-1,3-benzoxazin-4-one], the solubility was no more than 3000 µg/mL. On the same count and under the same terms, next, `COc1cc2c(cc1OC)C(=O)N(CCCCN1CCN(c3ccccc3OC)CC1)CO2` [Example 17, Hydrochloride of 2.3-dihydro-6,7-dimethoxy-3-[4-(4-(2-methoxyphenyl)piperazinyl)butyl]-4H-1,3-benzoxazin-4-one]: no more than 2000 µg/mL; `O=C1c2ccccc2OCN1CCN1CCN(c2ccccc2)CC1` [Example 3, Dihydrochloride of 2,3-dihydro-3-[2-(4-phenylpiperazinyl)ethyl]-4H-1,3-benzoxazin-4-one]: no more than 10000 µg/mL; `COc1ccccc1N1CCN(CCCN2COc3ccccc3C2=O)CC1` [Example 6, Hydrochloride of 2,3-dihydro-3-[3-(4-(2-methoxyphenyl)piperazinyl)propyl]-4H-1,3-benzoxazin-4-one]: no more than 5000 µg/mL. Same read-out and setting: next, `O=C1c2ccccc2OCN1CCCN1CCN(c2ccccc2)CC1` [Example 2, Monohydrochloride of 2,3-dihydro-3-[3-(4-phenylpiperazinyl)propyl]-4H-1,3-benzoxazin-4-one]: no more than 10000 µg/mL; `O=C1c2ccccc2OCN1CCCCN1CCN(c2ccccc2)CC1` [Example 4, Hydrochloride of 2.3-dihydro-3-[4-(4-phenylpiperazinyl)butyl]-4H-1,3-benzoxazin-4-one]: no more than 5000 µg/mL.
